Reference: patent publication US20240342176A1, “PHARMACEUTICAL COMBINATION AND APPLICATION THEREOF” (GUANGZHOU JOYO PHARMATECH CO., LTD, priority 2021, published 2024)

Columns and labels:
PI3Kγ = PI3Kγ (Homo sapiens (Human), UniProt P48736); assay: ADP-Glo chemiluminescence enzymatic activity assay, PI3Kγ; type: biochemical; conditions: mean ± SD, N = 3, ATP 25 μM
Method: (§1) • 1. Research purpose: The inhibitory effect of compound I on the enzymatic activity of PI3Kδ and PI3Kγ in vitro. • 2. Experimental materials: • (1) Main instrument: Envision (PerkinElmer-2104) • (2) Main reagents: ADP-Glo kinase kit (purchased from Promega), PI3Kδ (P1108/P85a) (purchased from Millipore), and PI3Kγ (P120γ) (purchased from Millipore). • 3. Experimental methods: • 1) Preparation of buffer salt solution: A 10× buffer salt solution with a pH of 7.5 containing 500 mM HEPES, 500 mM NaCl, and 30 mM MgCl2 was prepared with ultrapure water and stored at 4° C. for later use. Before use, the above buffer salt solution was diluted to a 3.33× buffer salt solution and BSA was added to a final concentration of 0.333 mg/mL. • 2) A 100× reference compound (compound I) was prepared with a starting concentration of 100 nM, diluted in a 3-fold serial dilution to 10 concentrations and transferred to the corresponding 384 microwell plate at 50 nL/well. In the control group, 50 nL/well of DMSO was added. • 3) 3.33×PI3K solutions were prepared with the 3.33× buffer salt solution, PI3Kδ at a final concentration of 0.25 nM, PI3Kγ at a final concentration of 0.4 nM. A 3.33×PIP2:3PS solution was prepared, mixed with the enzyme solutions at a volume ratio of 1:1, and added to the 384 microwell plate in 3 μL/well. […] The luminescence value was read using Envision. • 4. […]

PI3Kδ = PI3Kδ (Homo sapiens (Human), UniProt O00329); assay: ADP-Glo chemiluminescence enzymatic activity assay, PI3Kδ; type: biochemical; conditions: mean ± SD, N = 3, ATP 40 μM
PI3Kδ, sequence (O00329 whole entry, looked up): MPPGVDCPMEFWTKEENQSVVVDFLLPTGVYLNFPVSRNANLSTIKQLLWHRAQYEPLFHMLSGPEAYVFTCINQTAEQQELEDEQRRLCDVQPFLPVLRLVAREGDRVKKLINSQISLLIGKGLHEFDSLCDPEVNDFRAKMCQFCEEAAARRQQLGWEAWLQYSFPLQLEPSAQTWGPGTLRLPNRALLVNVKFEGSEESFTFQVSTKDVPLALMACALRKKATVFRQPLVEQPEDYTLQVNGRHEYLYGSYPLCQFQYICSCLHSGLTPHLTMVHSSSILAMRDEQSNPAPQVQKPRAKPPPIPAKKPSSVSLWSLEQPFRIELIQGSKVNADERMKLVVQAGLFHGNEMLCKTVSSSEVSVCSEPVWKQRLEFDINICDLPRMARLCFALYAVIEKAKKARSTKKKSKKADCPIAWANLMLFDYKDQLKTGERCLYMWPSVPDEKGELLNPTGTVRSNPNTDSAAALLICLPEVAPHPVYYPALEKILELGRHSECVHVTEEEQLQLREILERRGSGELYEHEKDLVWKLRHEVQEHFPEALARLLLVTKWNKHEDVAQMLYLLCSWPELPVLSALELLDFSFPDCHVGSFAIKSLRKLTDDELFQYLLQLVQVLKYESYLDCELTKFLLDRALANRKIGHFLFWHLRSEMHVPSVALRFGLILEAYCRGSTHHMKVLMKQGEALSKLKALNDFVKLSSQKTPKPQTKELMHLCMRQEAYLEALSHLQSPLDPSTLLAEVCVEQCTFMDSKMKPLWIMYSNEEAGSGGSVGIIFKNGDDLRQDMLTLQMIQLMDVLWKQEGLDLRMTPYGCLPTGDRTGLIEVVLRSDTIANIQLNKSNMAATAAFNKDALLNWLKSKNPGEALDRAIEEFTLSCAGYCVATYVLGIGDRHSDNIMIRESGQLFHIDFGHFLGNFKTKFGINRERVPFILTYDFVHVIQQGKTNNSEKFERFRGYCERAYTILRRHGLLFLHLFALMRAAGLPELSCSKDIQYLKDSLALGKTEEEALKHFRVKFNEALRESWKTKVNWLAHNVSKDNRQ
PI3Kδ, sequence (P27986 whole entry partner, looked up): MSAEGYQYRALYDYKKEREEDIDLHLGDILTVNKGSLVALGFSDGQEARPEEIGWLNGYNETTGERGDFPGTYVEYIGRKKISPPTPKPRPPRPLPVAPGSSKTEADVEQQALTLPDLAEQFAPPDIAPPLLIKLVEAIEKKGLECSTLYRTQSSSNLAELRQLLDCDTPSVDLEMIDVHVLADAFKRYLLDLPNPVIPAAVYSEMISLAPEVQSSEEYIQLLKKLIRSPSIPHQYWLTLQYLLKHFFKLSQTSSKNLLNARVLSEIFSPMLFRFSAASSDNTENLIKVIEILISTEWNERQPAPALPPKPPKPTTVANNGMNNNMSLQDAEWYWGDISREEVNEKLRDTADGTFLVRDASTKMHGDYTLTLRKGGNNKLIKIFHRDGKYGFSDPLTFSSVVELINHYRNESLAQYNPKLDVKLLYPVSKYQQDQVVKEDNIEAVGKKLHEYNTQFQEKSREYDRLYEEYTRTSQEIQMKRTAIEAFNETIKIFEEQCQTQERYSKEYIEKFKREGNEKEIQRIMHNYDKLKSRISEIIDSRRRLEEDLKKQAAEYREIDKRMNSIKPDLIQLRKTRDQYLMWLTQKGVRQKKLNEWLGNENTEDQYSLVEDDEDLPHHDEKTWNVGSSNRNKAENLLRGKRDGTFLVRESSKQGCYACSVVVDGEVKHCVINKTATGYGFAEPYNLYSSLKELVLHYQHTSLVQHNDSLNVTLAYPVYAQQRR
Method: as §1

human Treg cells = assay: In vitro pharmacodynamic experiment on human Treg cells (flow cytometry CD4, CD25, Foxp3); type: cell-based; conditions: for IC50: Homo sapiens, 120 h, five days of compound incubation, CD4, CD25, Foxp3 positive counts vs DMSO control, read-out: IC50, inhibitory activity on human Treg cells
Method: • 1. Research purpose: The in vitro pharmacodynamic experiment of compound I on human Treg cells. • 2. […] Experimental methods: • 1) A 96-well cell culture plate was coated with 10 μg/mL anti-human CD3, 50 μL per well, incubated at 37° C. for three hours, and then rinsed with X-VIVO medium. • 2) Human peripheral blood mononuclear cells (purchased from Hemacare) were resuscitated and stained with CellTrace Violet (CTV). • 3) After staining, Human Naive CD4+ T cells were isolated using the Human naïve CD4 isolation kit. • 4) IL-2 (10 ng/ml), CD28 (2 μg/mL), and TGF-b (1 ng/mL) were added to the cell culture medium, and different concentrations of the test compounds were added at the same time. • 5) After five days of compound incubation, CD4, CD25, and Foxp3 were detected by flow cytometry. The positive counts of CD4, CD25, and Foxp3 were calculated, and the relative survival rate and IC50 were calculated compared with the DMSO control group. • 4. Experimental results: • The experiment used the flow cytometry method to determine the in vitro pharmacodynamic experiment of the test compound I on human Treg cells. The detection results are shown in A and B of FIG. 5 and Table 3.

PI3Kγ, sequence (P48736 whole entry): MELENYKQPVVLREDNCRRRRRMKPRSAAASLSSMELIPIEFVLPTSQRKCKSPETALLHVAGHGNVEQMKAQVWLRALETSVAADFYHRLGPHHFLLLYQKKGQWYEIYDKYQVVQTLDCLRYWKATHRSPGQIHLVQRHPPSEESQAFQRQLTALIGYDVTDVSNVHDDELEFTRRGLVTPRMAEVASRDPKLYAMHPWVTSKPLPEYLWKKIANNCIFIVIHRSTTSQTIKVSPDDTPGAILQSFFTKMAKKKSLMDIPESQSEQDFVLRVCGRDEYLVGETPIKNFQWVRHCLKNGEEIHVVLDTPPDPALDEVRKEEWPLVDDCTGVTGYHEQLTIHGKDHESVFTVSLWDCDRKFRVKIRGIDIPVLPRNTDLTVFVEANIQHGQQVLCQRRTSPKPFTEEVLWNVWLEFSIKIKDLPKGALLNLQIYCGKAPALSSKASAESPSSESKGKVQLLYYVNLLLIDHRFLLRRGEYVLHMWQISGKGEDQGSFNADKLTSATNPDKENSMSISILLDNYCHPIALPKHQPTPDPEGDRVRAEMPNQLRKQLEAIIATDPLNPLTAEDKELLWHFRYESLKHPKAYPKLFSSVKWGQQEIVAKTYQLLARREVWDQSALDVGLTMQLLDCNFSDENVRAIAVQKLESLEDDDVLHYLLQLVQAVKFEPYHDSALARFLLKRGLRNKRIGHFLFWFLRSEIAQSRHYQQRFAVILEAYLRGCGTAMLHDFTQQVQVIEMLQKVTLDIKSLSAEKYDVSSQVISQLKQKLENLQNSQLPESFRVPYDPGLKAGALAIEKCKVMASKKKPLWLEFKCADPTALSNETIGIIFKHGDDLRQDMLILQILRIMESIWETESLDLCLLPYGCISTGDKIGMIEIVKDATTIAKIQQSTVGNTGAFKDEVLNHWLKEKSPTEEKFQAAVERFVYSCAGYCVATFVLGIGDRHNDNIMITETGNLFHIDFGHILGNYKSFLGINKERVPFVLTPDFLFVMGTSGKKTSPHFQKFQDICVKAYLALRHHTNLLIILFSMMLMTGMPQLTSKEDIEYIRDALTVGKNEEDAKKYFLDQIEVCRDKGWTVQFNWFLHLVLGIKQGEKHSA

IC50 (PI3Kγ) | IC50 (PI3Kδ) | IC50 (human Treg cells) | SMILES | inhibitory activity on human Treg cells relative to Idelalisib (human Treg cells; ratio of IC50 values)
290 ± 20 pM | 180 ± 10 pM | 10 pM | COCCOc1cnc2ccc(-c3cnc(OC)c(NS(=O)(=O)c4sc(C)nc4C)c3)cn2c1=O [Compound I] | 3172 times
– | – | 31700 pM | CC[C@H](Nc1ncnc2[nH]cnc12)c1nc2cccc(F)c2c(=O)n1-c1ccccc1 [Idelalisib, reference compound] | –
